Experimental data: PMC2594009 (Structure (London, England : 1993), 2008)
“Also recorded” adds a separate entry of the source.

Experiments:
WT AM2 = type: cell-based, influenza A virus; conditions: pH 5.5
M2 = conditions: cited from earlier work

SMILES: NC12CC3CC(CC(C3)C1)C2 [amantadine]
- reversibility of inhibition after removal of the drug (WT AM2): did not reverse; also recorded: not reversible
- Hill coefficient (M2): 1.0
